Results published in a melting point compilation (Tetko et al.; mined from patent text by program, amines drawn as free bases though some values may be those of a salt).

| melting point | SMILES |
| --- | --- |
| 145 to 147 °C | O=C(Nc1ccccc1)Nc1ccc(Cl)cc1C(=O)c1ccccc1 |
| 244 to 245 °C | Oc1nn(-c2ccc(Cl)c(Cl)c2)cc1-c1ccccc1 |
| 178 to 179 °C | CC(=O)Nc1nc(CN2CCN(C(c3ccccc3)c3ccccc3)CC2)cs1 |
| 120 to 122 °C | CC(=O)OCCc1ccc2sc(S(N)(=O)=O)cc2c1 |
| 100 to 101 °C | CCn1cc(CN(C(=O)C2CCCc3ccc(OCc4ccccc4)cc32)c2ccc(C(C)C)cc2)cn1 (stereo not given) |
| 294 to 298 °C | O=c1nc(-c2ccc(F)cc2)c2ccccc2[nH]1 |
| 58 °C | C=C1C[C@@H](O)[C@H](/C=C/[C@@H](O)CCCCC)[C@H]1Cc1cccc(OCc2ccccc2)c1 |
| 221 to 223 °C | N#Cc1cnc2sc(-c3cccc(C=O)c3)cc2c1Nc1ccc2[nH]ccc2c1 |
| 123 to 125 °C | O=c1[nH]c2ccccc2n1CCN1CCCCC1 |
| 250 to 251 °C | O=C1COc2cc(Oc3ccc(O)cc3)ccc2N1 |
| 143 to 145 °C | CCc1cn(C2CC(OC(C)=O)C(CNC(=O)Cc3ccccc3NC(C)=O)O2)c(=O)[nH]c1=O (stereo not given) |
| 78 to 80 °C | CCOC(=O)CC(=O)c1cc2cc(F)c(F)c(F)c2nc1Cl |
| 232 °C | NC(=O)c1c(Cl)c(-c2ccccc2)n2c1CN(C(=O)c1ccc(-c3ccccn3)s1)CC2 |
| 97 to 100 °C | Nc1ccc(-c2ncon2)cc1 |
| 174 to 175 °C | NC(=O)c1nnn(Cc2ccc(Cl)c(C(Cl)=C(Cl)Cl)c2)c1N |
| 138 °C | CN(Cc1ccccc1)C1CCN(c2ccc(N)cc2)CC1 |
| 142 to 145 °C | C#CCOCC(=O)Nc1ccccc1 |
| 129 to 130 °C | CCCCN(C(=S)NC)c1ccc(Cl)nc1 |
| 260 to 261 °C | C/C(=C\c1ccc(C(=O)O)cc1)c1ccc2c(c1)C(C)(C)C(=O)CC2(C)C |
| 219 to 220 °C | O=C(Cl)c1cccc(N2CCOCC2)c1 |
| 198 °C | Cc1ccc(CCCO)c(NCc2ccc3nc(NCCCN4CCOCC4)n(Cc4cccc5c4ncn5C)c3c2)c1 |
| 226 to 229 °C | CC(C)(C)OC(=O)N1CCNC(C(=O)O)C1 (stereo not given) |
| 155 to 157 °C | O=C(Nc1ccccc1C(c1ccc(O)cc1)c1ccc(O)cc1)C12CC3CC(CC1C3)C2 |
| 228 to 230 °C | Cc1nnc2n1CC(=O)N(C)c1ccc(Cl)cc1-2 |
| 198 to 203 °C | CC(=O)N1CCC(CCCCC(=O)O)CC1 |

| melting point | SMILES |
| --- | --- |
| 111 to 114 °C | CCC(CC)n1c(=O)ccc2cnc(S(C)=O)nc21 (stereo not given) |
| > 250 °C | CN1CCN(C(=O)Cn2nnnc2S)CC1 |
| 164 to 167 °C | Cc1ccc(N)cc1Nc1nccc(-c2cncnc2)n1 |
| 165 to 166 °C | CNC(=O)C(=NOC)c1ccccc1COc1ncc(C)cc1C(=O)OC(C)C |
| 160 to 162 °C | CCC(=O)N1C(=O)C(=O)c2cc(Cl)ccc21 |
| 168 to 170 °C | N#Cc1ccc2cccc(N3CCN(CCCCOc4ccc5c(n4)NC(=O)NCC5)CC3)c2c1 |
| 148 °C | CN1C(=O)CN(C(=O)c2ccccc2)N(c2cc(Cl)c(C(C#N)c3ccc(Cl)cc3)c(Cl)c2)C1=O (stereo not given) |
| 123 to 125 °C | Cn1cc2c(CO)c(Br)ccc2n1 |
| 224 to 226 °C | CCNC(=O)[C@H]1CN(c2ccc3c(c2)sc(=O)n3C)C(=O)O1 |
| 180 to 182 °C | CCOC(=O)c1nc2oc(C)c(C)c2c(=O)[nH]1 |
| 282 to 284 °C | N#Cc1cccc(CN2CCc3sc(Nc4ncc(F)cn4)nc3-c3cn[nH]c32)c1 |
| 184 to 185 °C | COC(=O)c1cc(-c2nc3ccccc3s2)cc2c1OC(c1ccccc1)(c1ccccc1)O2 |
| 137 to 138 °C | CN1C(=O)CC[C@]2(C)c3ccc(SCc4ccccc4)cc3CC[C@@H]12 |
| 149 to 152 °C | Cc1ccc2c(c1)nnn2CNc1ccccc1 |
| 131 to 132 °C | Cc1ccc(S(=O)(=O)N2CCC(Sc3ccc(F)cc3)CC2)cc1 |
| 117 °C | CCOC(=O)c1cnn2c(C3CC3)cc(-c3ccc(C(F)(F)F)cc3)cc12 |
| 93 to 94 °C | COC1(c2ccc(Sc3ccc(C(=O)c4c(F)c(F)c(F)c(F)c4F)cc3)s2)CCOCC1 |
| 175 to 177 °C | COc1ccc(N2CCN(c3c(C)c(C=O)c4c(c3C)C(c3ccc(C)cc3)C(C)(C)O4)CC2)cc1 (stereo not given) |
| 74.7 °C | CC(=O)N(C)[C@@H]1CN2C(=O)N(c3cc(Cl)cc(Cl)c3)C(=O)[C@@]2(Cc2ccc(OC(F)(F)F)cc2)C1 |
| 98 to 100 °C | Cc1oc(-c2ccccc2)nc1Cc1cc2cc(Br)ccc2o1 |
| 173 to 174 °C | CCOC(=O)c1ccc(/C=C(\C)c2ccc3c(c2)C(C)(C)C(=O)CC3(C)C)cc1 |
| 296 to 298 °C | Nc1ncc(CN2CCN(c3ccc(Cl)cc3)CC2)c(N)n1 |
| 214 to 216 °C | Cc1coc2c(c1=O)N(C)S(=O)(=O)c1ccccc1-2 |
| 105 to 106 °C | CCOc1c(C(=O)OCC(C)(C)C(=O)C(C)(C)C)oc2ccc(OC)cc12 |
| 292 to 296 °C | CC(=C1SC(=O)NC1=O)c1ccc(OCCOc2c(-c3ccc(F)cc3)n(C)c3cc(Cl)ccc3c2=O)cc1 |

| melting point | SMILES |
| --- | --- |
| 155 to 156 °C | C=CCOC(=O)c1ccc(NC(=O)C(C(=O)OC)c2ccc3c(c2)C(C)(C)CCC3(C)C)cc1 (stereo not given) |
| 154 to 155 °C | CCOC(=O)c1cn(Cc2ccccc2)nc1OCc1ccc(OCc2nc(-c3ccccc3)oc2C)c(OC)c1 |
| 132 to 134 °C | CN1CCC2(CC1)C(=O)N(C)C(=O)N2c1ccccc1 |
| 119 to 121 °C | CCOC(=O)N1CCC(c2ccc(COc3ccc(S(C)(=O)=O)cc3)nc2)CC1 |
| 156 to 159 °C | Cc1cc2c(s1)Oc1ccccc1N=C2N1CC2CCC(C1)N2C |
| 194 to 196 °C | CS(=O)(=O)c1ccc(-n2cc(-c3cccc(F)c3)nc2-c2ccc(Cl)cc2)cc1 |
| 228 °C | CC(=O)Nc1ccc(C(=O)NC2=Nc3cc(N4CCOCC4)ccc3C3=NCCN23)cn1 |
| 188 to 190 °C | CNC(=S)N1CCc2nc(N)sc2C1 |
| > 240 °C | CCOC(=O)C1=Nc2cc3c(c(C)c2=C1C)N=c1ccc(C#N)cc1=3 |
| 153 to 155 °C | COCCOc1cc2c(Nc3cc(OC)c(Cl)cc3Cl)c(C#N)cnc2cc1OCC1CCN(C)CC1 |
| 169 to 171 °C | CCOC(=O)Cc1sc(Sc2nccc(C)c2C(=O)O)nc1C |
| 199 to 202 °C | COc1ccc(-n2c(=O)c(-c3ccccc3)nc3ccccc32)cc1 |
| > 300 °C | Cc1nc(-c2ccc(C(=O)O)cc2)sc1C(=O)O |
| 142 to 144 °C | Cc1cc2c(s1)SCC1CC(=O)N(c3ccc(Cl)cc3)N=C21 (stereo not given) |
| 100 to 101 °C | CCCCCCCCCCCCCCS(=O)(=O)N[C@H]1CCCNC(=O)C1 |
| 208 to 210 °C | COC(=O)CCCCCCCCOC1OC(CO)C(O)C(OC2OC(CO)C(O)C(O)C2O)C1NC(C)=O (stereo not given) |
| 180 to 184 °C | CC(=O)OC1CC2(C)C(CCC2(Sc2ccccc2)Sc2ccccc2)C2CCC3=CC(=O)C=CC3(C)C12F (stereo not given) |
| 166 °C | O=C1c2ccccc2C(=O)N1CCOc1cccc2c1SCCC2 |
| 54 to 58 °C | COc1ccccc1CN[C@H]1CCCN(CC=Cc2ccccc2)[C@H]1c1ccccc1 (relative stereo) |
| 121 to 122 °C | Cc1c(Cl)cc2nc(Cl)c(Cl)nc2c1[N+](=O)[O-] |
| 147 to 148 °C | COC(=O)Cc1csc2c(O)cccc12 |
| 124 to 126 °C | CCCCc1cc(N)n2nccc2n1 |
| 69 to 72 °C | CC(C)(C)c1cc(SC2CC(=O)N(CCCCCCN3C(=O)CC(Sc4cc(C(C)(C)C)c(O)c(C(C)(C)C)c4)C3=O)C2=O)cc(C(C)(C)C)c1O (stereo not given) |
| 214 to 216 °C | Cc1ccc(-c2ccc(C(=O)Nc3ccc4nc(CN5CCOCC5)ccc4c3)cn2)cc1 |
| 64 to 65 °C | CCCCCC(=O)CCc1ccc(CCCCCCCC(=O)O)o1 |

| melting point | SMILES |
| --- | --- |
| 150 to 151 °C | COc1cc(C(=O)c2cccnc2)ccc1O |
| 68 to 74 °C | CC(C)(C)OC(=O)Nc1ccc(OC(=O)C2CCCCC2)c(C(=O)O)c1 |
| 120 to 121 °C | CCCC(O)c1cc(C#N)ccc1OCc1ccc(Cl)cc1Cl (stereo not given) |
| 126 to 127 °C | O=C(NC1CC1)c1cccc2c1CC(NC1CC1)CO2 (stereo not given) |
| 196 to 198 °C | CC(=O)Oc1ccc(-c2ccccc2)cc1C1(OC(C)=O)C(=O)c2ccccc2C1=O |
| 178 to 180 °C | CC(COc1ccc(-n2nc3c(cc2=O)CCc2ccc(F)cc2-3)cc1)N(C)C (stereo not given) |
| 108 °C | Cc1c(Cl)ccc2[nH]c(CO)cc12 |
| 184 to 185 °C | Oc1ccc2cc(OCCN3CCC(Cc4ccc(F)cc4)CC3)ccc2c1 |
| 282 to 284 °C | O=C1NC(c2ccccc2)C(=O)NC1c1ccccc1 (stereo not given) |
| 180 to 185 °C | CNc1ncnc(N)c1N |
| 204 to 206 °C | CCCCNC(=O)Nc1ncc(-c2ccncc2)cn1 |
| 178 to 180 °C | Cc1nc(-n2cc(C(=O)NCc3ccccc3)nn2)sc1C(=O)NCc1ccccc1 |
| 147 to 150 °C | O=C(O)c1cc(Cl)cc2c1O[C@@H]1C=CCC[C@H]21 (relative stereo) |
| 155 to 157 °C | CC(C)n1nc(-c2sc(NC(=O)CN(C)CCN(C)C)nc2-c2ccccc2)ccc1=O |
| 53 to 57 °C | OCC1Cc2cc(F)cc(Br)c2O1 (stereo not given) |
| 331 °C | O=C1NC(NCC2CC2)=N/C1=C\c1c[nH]c2ncc(N3CCOCC3)cc12 |
| 129 to 131 °C | O=C(O)COc1cccc2c1OCc1sc(SC(c3ccccc3)c3ccccc3)nc1-2 |
| 304 to 308 °C | COc1cc2c3c(n(CCCCO)c(=O)c2cc1OC)-c1cc2c(cc1C3=O)OCO2 |
| 118 to 119 °C | C[C@@H](n1cnn(-c2ccc(OCC(F)(F)F)cc2)c1=O)[C@@]1(c2ccc(F)cc2F)CO1 |
| 103 to 105 °C | COc1ccc(OCC(O)CCN2CCN(c3ccccc3)CC2)cc1 (stereo not given) |
| 224 to 227 °C | CC12CCC3c4ccc(C(=O)O)cc4CCC3C1CCC2C(=O)CCc1ccc(F)cc1 (stereo not given) |
| 164 to 165 °C | N#CCCn1ccc(NC(=S)NCC(F)(F)F)n1 |

| SMILES | melting point |
| --- | --- |
| CN1C(=O)C(F)N=C(c2ccccc2F)c2cc(Cl)ccc21 (stereo not given) | 91 to 95 °C |
| NCCCN1CC=C(c2ccc(Cl)cc2)CC1 | 57 to 58 °C |
| O=C(NC1CN2CCC1CC2)c1cccc2nc(-c3ccccc3)oc12 (stereo not given) | 179 to 180 °C |
